Results from patent US20120016019A1, “PHARMACEUTICAL COMPOSITION FOR TREATING OR PREVENTING CANCER” (priority 2010, published 2012).
Where “and” joins values, the source holds several entries; their conditions need not be identical. Equal entries are not always repeated. Where two headings read alike, the source gives them in different places.

Assays:
Format in all cases: cell-based
TT = experiment: XTT cell viability assay, TT; details: for The absorbance, group - Blank: mean minus blank; for The absorbance: single value
Protocol: (§1) Cancer cell lines HCC 1419, MCF-7, MDA-MB-468, SKBR3, PC3, HT1299, Saos-2, C-6, AsPc, MDA-MB-231, RKO, HeLa and TT, and normal cell lines HME 50 HT, BJ and CCD-1074sk were tested for changes in metabolism (XTT assay) and cell death (cell counts).
(§2) Cells were plated into 48-well Corning CellBind™ plates at densities of 20,000 cells for normal cells and 10,000˜20,000 cells for cancer cells. 24 to 48 h after plating, cells were treated with the composition according to the invention at concentrations of 4.5e-2M. The first time point treated with the composition of the invention is 0 h. At 3 days after the first treatment with the composition of the invention, medium was changed and the composition of the invention at the same concentrations were added to the cultured cells.
Cells were seeded in a 96-well tissue culture plate at a density of 10,000 cells for normal cells and 5,000 cells for cancer cells. After incubation period, the formazan dye formed was quantitated using an ELISA reader. The optimal wavelength used in experiments was 500 nm, and it was measured at 0 h, 12 h, 24 h, 48 h, 4 d and 7 d, respectively. The obtained values were generated using the software SoftMax Pro 4.8.
The cell viability was calculated according to the manufacturer's instructions as follows (the term “blank” means XTT in medium only):
Cellular cytotoxicity was calculated according to the manufacturer's instructions as follows:

HME 50 HT = details: for cell counts: single count
Protocol: As a result, LC-50 curves were generated in the 1st week.
In the 2nd plate, 7 d of the 1st week (LC-50) is the same as 0 h of the 2nd week (recovery).
At 0 h of the 2nd week, medium was exchanged with untreated medium for the remainder of the experiment. The untreated controls were not measured in the 2nd week (recovery) due to overconfluence by the end of the 1st week. As a result, Recovery curves were generated in the 2nd week.
Human Mammary Epithelial (HME) cells were derived from adjacent normal tissue.

AsPc = experiment: Cell counts, AsPc
Protocol: as §1, §2
Cells were harvested using Trypsin-EDTA at the designated time points. […] Two 48-well plates were used per cell line, and they were measured at 0 h, 12 h, 24 h, 48 h, 4 d and 7 d, respectively.
In the 1st plate, cells were treated with the composition according to the invention and medium was changed at 0 h and 3 d. […] As a result, LC-50 curves were generated in the 1st week.
At 0 h of the 2nd week, medium was exchanged with untreated medium for the remainder of the experiment. […] As a result, Recovery curves were generated in the 2nd week.

[1] = HME 50 HT, 1st week (LC50), 0 h
[2] = HME 50 HT, 1st week (LC50), 12 h
[3] = HME 50 HT, 1st week (LC50), 24 h
[4] = HME 50 HT, 1st week (LC50), 48 h
[5] = HME 50 HT, 1st week (LC50), 4 d
[6] = HME 50 HT, 1st week (LC50), 7 d

Structure (SMILES): CC(=O)O[C@H]1C(=O)[C@@]2(C)[C@H]([C@H](OC(=O)c3ccccc3)[C@]3(O)C[C@H](OC(=O)[C@H](O)[C@@H](NC(=O)c4ccccc4)c4ccccc4)C(C)=C1C3(C)C)[C@]1(OC(C)=O)CO[C@@H]1C[C@@H]2O [Taxol]
- The absorbance, group - Blank (TT; 1st week (LC50), 4 d): 1.9816
- The cytotoxicity (TT; 1st week (LC50), 7 d): 0.5080
- The viability (TT; 1st week (LC50), 7 d): 0.4920
- The absorbance, group - Blank (TT; 1st week (LC50), 7 d): 0.9498
- The absorbance, Mean value (TT; 1st week (LC50), 7 d): 1.2132
- The absorbance (TT; 1st week (LC50), 7 d): 1.2763
- The cytotoxicity (TT; 2nd week (recovery), 0 h): −3.3443
- The viability (TT; 2nd week (recovery), 0 h): 4.3443
- The absorbance, group - Blank (TT; 2nd week (recovery), 0 h): 1.9578
- The absorbance, Mean value (TT; 2nd week (recovery), 0 h): 2.2212
- The cytotoxicity (TT; 2nd week (recovery), 12 h): −0.1062
- The viability (TT; 2nd week (recovery), 12 h): 1.1062
- The absorbance, group - Blank (TT; 2nd week (recovery), 12 h): 2.3230
- The absorbance, Mean value (TT; 2nd week (recovery), 12 h): 2.5864
- The cytotoxicity (TT; 2nd week (recovery), 24 h): 0.5481
- The viability (TT; 2nd week (recovery), 24 h): 0.4519
- The absorbance, group - Blank (TT; 2nd week (recovery), 24 h): 1.2354
- The absorbance, Mean value (TT; 2nd week (recovery), 24 h): 1.4988
- The cytotoxicity (TT; 2nd week (recovery), 48 h): 0.6857
- The viability (TT; 2nd week (recovery), 48 h): 0.3143
- The absorbance, group - Blank (TT; 2nd week (recovery), 48 h): 0.4723
- The absorbance, Mean value (TT; 2nd week (recovery), 48 h): 0.7357
- The cytotoxicity (TT; 2nd week (recovery), 4 d): 0.8411
- The viability (TT; 2nd week (recovery), 4 d): 0.1589
- The absorbance, group - Blank (TT; 2nd week (recovery), 4 d): 0.3067
- The absorbance, Mean value (TT; 2nd week (recovery), 4 d): 0.5701
- The absorbance (TT; 2nd week (recovery), 4 d): 0.4887 and 0.7079 and 0.5136
- The cytotoxicity (TT; 2nd week (recovery), 7 d): −3.3443
- The viability (TT; 2nd week (recovery), 7 d): 4.3443
- The absorbance, group - Blank (TT; 2nd week (recovery), 7 d): 1.9578
- The absorbance, Mean value (TT; 2nd week (recovery), 7 d): 0.2634
- The absorbance (TT; 2nd week (recovery), 7 d): 0.2616 and 0.2542 and 0.2744
- number of normal cells (HME 50 HT): the number of cells did not increase, and was merely maintained for two weeks
- cell counts, Mean value (HME 50 HT; [1]): 14667
- cell counts (HME 50 HT; [1]): 12000 and 11000 and 21000
- cell counts, Mean value (HME 50 HT; [2]): 16667
- cell counts (HME 50 HT; [2]): 14000 and 23000 and 13000
- cell counts, Mean value (HME 50 HT; [3]): 11333
- cell counts (HME 50 HT; [3]): 14000 and 11000 and 9000
- cell counts, Mean value (HME 50 HT; [4]): 15667
- cell counts (HME 50 HT; [4]): 18000 and 11000
- cell counts, Mean value (HME 50 HT; [5]): 9000
- cell counts (HME 50 HT; [5]): 9000
- cell counts, Mean value (HME 50 HT; [6]): 16667
- cell counts (HME 50 HT; [6]): 17000 and 19000 and 14000
- cell counts, Mean value (HME 50 HT; HME, 2nd week (recovery), 0 h): 16333
- cell counts (HME 50 HT; HME, 2nd week (recovery), 0 h): 19000 and 17000 and 13000
- cell counts, Mean value (HME 50 HT; HME, 2nd week (recovery), 12 h): 13667
- cell counts (HME 50 HT; HME, 2nd week (recovery), 12 h): 13000 and 15000
- cell counts, Mean value (HME 50 HT; HME, 2nd week (recovery), 24 h): 12667
- cell counts (HME 50 HT; HME, 2nd week (recovery), 24 h): 12000 and 15000 and 11000
- cell counts, Mean value (HME 50 HT; HME, 2nd week (recovery), 48 h): 17000
- cell counts (HME 50 HT; HME, 2nd week (recovery), 48 h): 18000 and 16000 and 17000
- cell counts, Mean value (HME 50 HT; HME, 2nd week (recovery), 4 d): 16333
- cell counts (HME 50 HT; HME, 2nd week (recovery), 4 d): 18000 and 19000 and 12000
- cell counts, Mean value (HME 50 HT; HME, 2nd week (recovery), 7 d): 16000
- cell counts (HME 50 HT; HME, 2nd week (recovery), 7 d): 14000 and 19000 and 15000
- process of cell death (microscopy) (AsPc): cell membranes were ruptured by toxicity of Taxol, and then nuclei of cells changed into black
- cell counts (AsPc; 1st week (LC50), 0 h): 2340 and 2039 and 2111
- cell counts, Mean value (AsPc; 1st week (LC50), 0 h): 2163
- cell counts (AsPc; 1st week (LC50), 12 h): 2833 and 2279 and 2550
- cell counts, Mean value (AsPc; 1st week (LC50), 12 h): 2554
- cell counts (AsPc; 1st week (LC50), 24 h): 2336 and 2161 and 2310
- cell counts, Mean value (AsPc; 1st week (LC50), 24 h): 2269
- cell counts (AsPc; 1st week (LC50), 48 h): 2810 and 2130 and 1800
- cell counts (AsPc; 1st week (LC50), 4 d): 2007 and 2100
- cell counts, Mean value (AsPc; 1st week (LC50), 4 d): 2042
- cell counts (AsPc; 1st week (LC50), 7 d): 2174 and 1902
- cell counts, Mean value (AsPc; 1st week (LC50), 7 d): 1823
- cell counts (AsPc; 2nd week (recovery), 0 h): 1213 and 1770
- cell counts (AsPc; 2nd week (recovery), 48 h): 1210 and 1202
- cell counts, Mean value (AsPc; 2nd week (recovery), 4 d): 631
- cell counts (AsPc; 2nd week (recovery), 7 d): 73 and 85
- cell counts, Mean value (AsPc; 2nd week (recovery), 7 d): 86
